Patent US10112977B2, “Peptide for inducing multinucleation in cells, and use therefor” (Toagosei Co., Ltd., priority 2014, dated 2018)
Several values for one entry are separate records, joined by “and”; a condition that tells them apart may be missing. Equal values may be shown once. Peptide text beside a SMILES is read from it.

Columns and labels:
HeLa S3 cells [1] = assay: Evaluation test 2 of multinucleation-inducing activity (multinucleation induction ratio); type: cell-based, human; settings: 50 μM peptide, 4 days; for number of multinuclear cells (number): cells with two or more nuclei in 1 field of vision, individual test; for multinucleation induction ratio (%): individual test (1 field of vision)
Experimental: The multinucleation induction ratio was determined for the multinucleation-inducing synthetic peptides (sample 1 and sample 2) obtained in Example 1. The same HeLa S3 cells as in Example 2 were used for the sample cells. The evaluation test is described in the following.
HeLa S3 cells were seeded into each well of an 8-chamber (well) cell culture slide (also referred to as a chamber) to provide approximately 0.5×10^3 cells per well and were cultured overnight in an incubator under conditions of 5% CO2 and 37° C. The medium used was a common DMEM medium, i.e., DMEM (Wako Pure Chemical industries, Ltd., Cat. No. 043-30085) containing 10% FBS, 100 units/mL of penicillin, and 100 μg/mL of streptomycin. After this overnight culture, the medium in the culture chamber was exchanged for medium obtained by the addition of sample 1 or sample 2 in an amount giving a peptide concentration of 50 μM to DMEM medium prepared by adding 3% FBS, 100 units/mL of penicillin, and 100 μg/mL of streptomycin to the aforementioned DMEM, and subculturing was carried out by culture for 4 days under the same conditions. The control group was a peptide-free group in which only PBS (−) was added in the same volume as the peptide stock solution that was added in the sample addition groups.
After completion of the culture period, the cells in the test groups were subjected to cytoimmunostaining of a cytoplasm marker (calreticulin) nuclear staining as in Example 2. After the execution of the cytoimmunostaining and nuclear staining, the cells each test group were subjected to fluorescence observation using a confocal laser microscope and, for the cells observed in 1 field of vision, the total number of cells and the number of cells presenting two or more nuclei (number of multinucleated cells) were counted. The multinucleation induction ratio (proportion (%) for the number of cells having two or more nuclei with reference to the total number of cells observed in 1 field of vision in the microscopic observation) was calculated using the following formula: multinucleation induction ratio (%)=(number of cells having two or more nuclei)÷(total number of cells)×100. Using these conditions air the evaluation test for the multinucleation induction ratio, the test was carried out independently three times and the average multinucleation induction ratio was calculated by taking the average of the multinucleation induction ratios obtained in the individual tests.

HeLa S3 cells [2] = assay: Evaluation test 1 of multinucleation-inducing activity (calreticulin cytoimmunostaining and DAPI nuclear staining, confocal fluorescence observation); type: cell-based, human; settings: peptide concentration 50 μM, culture for 4 days
Experimental: To evaluate the multinucleation-inducing activity of the multinucleation-inducing synthetic peptides (sample 1 and sample 2) obtained in Example 1, cytoimmunostaining (fluorescence immunostaining) was performed using calreticulin as the cytoplasm marker and nuclear staining was performed with DAPI (4′,6-diamidino-2-phenylindole). HeLa S3 cells (ATCC (registered trademark), CCL2.2), a cultured cell strain originating from human cervical cancer, were used as the sample cells. The evaluation test is described in the following.
HeLa S3 cells were seeded into each well of a 4-chamber (well) cell culture slide (also referred to as a chamber) to provide approximately 1×10^3 cells per well and were cultured overnight in an incubator under conditions of 5% CO2 and 37° C. The medium used was a common DMEM medium, i.e., DMEM (Wako Pure Chemical Industries, Ltd., Cat. No. 043-30085) containing 10% […], 100 units/mL of penicillin, and 100 μg/mL of streptomycin. After this overnight culture, the medium in the culture chamber was exchanged for medium obtained by the addition, to the aforementioned DMEM medium containing PBS, penicillin and streptomycin, of the sample 1, sample 2, or sample 3 peptide in an amount providing a peptide concentration of 50 μM, and subculturing was carried out by culture for 4 days under the same conditions. The control group was a peptide-free group in which only PBS (−) was added in the same volume as the peptide stock solution that was added in the sample addition groups.
After completion of the culture period, the status of multinucleation in the cells in each test group was observed using the following cytoimmunostaining.
The cells in each test group wore first fixed followed by a blocking treatment. Specifically, the medium in the culture chamber in the test group was first removed and washing was carried out twice with cold PBS (−). A solution prepared by mixing 1 volume of methanol with 1 volume of acetone (methanol/acetone=1:1 solution) was then added and the HeLa S3 cells were fixed by standing for 15 minutes on ice. The methanol/acetone=1:1 solution was then removed acid washing was carried out three times with cold PBS PBS (−) containing 3% BSA (PBS (−) that contained 3% BSA) was added and a blocking treatment was carried out for 1 hour at room temperature. After the passage of the prescribed period of time, the PBS (−) containing 3% BSA was removed and washing with cold PBS (−) was performed three times. […]
The cells in each test group that had been subjected to this cytoimmunostaining were mounted using a cover glass and Slow Fade (Life Technologies Corporation, Cat. No. S36936), which is a DAPI-containing mountant, and fluorescence observation was performed using a confocal laser microscope. […]

Compound	number of multinuclear cells (number) (HeLa S3 cells [1])	multinucleation induction ratio (%) (HeLa S3 cells [1])	cells in which a plurality of nuclei had formed (induction of multinucleation), fluorescence observation (HeLa S3 cells [2])	number of nuclei per multinucleated cell, compared with sample 2 addition group (HeLa S3 cells [2])	average multinucleation induction ratio (%) (HeLa S3 cells [1]; average of three independent tests)
CC(C)C[C@H](NC(=O)[C@@H](NC(=O)[C@H](CCCNC(=N)N)NC(=O)[C@H](CCCCN)NC(=O)[C@@H](N)CCCCN)[C@@H](C)O)C(=O)N[C@@H](CCCNC(=N)N)C(=O)N[C@@H](CCCCN)C(=O)N[C@@H](CC(N)=O)C(=O)N[C@@H](CC(=O)O)C(=O)N[C@@H](CCCNC(=N)N)C(=O)N[C@@H](CCCCN)C(=O)N[C@@H](CCCCN)C(=O)N[C@@H](CCCNC(=N)N)C(=O)NCC(=O)NCC(=O)N[C@@H](CS)C(=O)N1CCC[C@H]1C(=O)N[C@@H](CC(=O)O)C(=O)NCC(=O)N[C@@H](C)C(=O)N[C@@H](CCCCN)C(=O)N[C@@H](C)C(=O)N[C@@H](CCCNC(=N)N)C(=O)N[C@@H](CS)C(=O)O [sample 1, KKRTLRKNDRKKR GG CPDGAKARC] (H-KKRTLRKNDRKKRGGCPDGAKARC-OH; N-terminus and C-terminus assumed)	12 number and 11 number and 13 number	41.4% and 39.3% and 41.9%	cells in which a plurality of nuclei had formed were observed	significantly larger number of nuclei per cell	
KKRTLRKNDRKKR (listed as Homo sapiens) [sample 3, reference compound]			cells in which a plurality of nuclei had formed were not observed		
CC(C)C[C@H](NC(=O)[C@@H](NC(=O)[C@H](CCCNC(=N)N)NC(=O)[C@H](CCCCN)NC(=O)[C@@H](N)CCCCN)[C@@H](C)O)C(=O)N[C@@H](CCCNC(=N)N)C(=O)N[C@@H](CCCCN)C(=O)N[C@@H](CC(N)=O)C(=O)N[C@@H](CC(=O)O)C(=O)N[C@@H](CCCNC(=N)N)C(=O)N[C@@H](CCCCN)C(=O)N[C@@H](CCCCN)C(=O)N[C@@H](CCCNC(=N)N)C(=O)NCC(=O)NCC(=O)N[C@@H](CS)C(=O)N[C@@H](CO)C(=O)N[C@@H](CCCNC(=N)N)C(=O)N[C@@H](CCCNC(=N)N)C(=O)N[C@@H](CO)C(=O)N[C@@H](CCCCN)C(=O)N[C@@H](CO)C(=O)N[C@@H](CCCCN)C(=O)N[C@@H](CS)C(=O)O [sample 2, KKRTLRKNDRKKR GG CSRRSKSKC] (H-KKRTLRKNDRKKRGGCSRRSKSKC-OH; N-terminus and C-terminus assumed)	9 number and 12 number and 11 number	30.0% and 37.5% and 39.3%	cells in which a plurality of nuclei had formed were observed		35.6
